Reference: patent EP4371976B1, “IONIZABLE LIPIDS AND LIPID NANOPARTICLES CONTAINING THEREOF” (Certest Biotec, S.L., priority 2022, dated 2024)

What was measured:
Female BALB/c mice = experiment: Firefly luciferase expression (total flux, IVIS imaging) in mice after injection of mRNA-loaded LNPs; assay type: in vivo; conditions: for protein expression in mice (transfection results): Figure 1 legend, LNPs containing RNA; for Total Flux: Table 8, mice, intramuscular, 5 µg luciferase mRNA in 50 µl, LNP 50:10:38.5:1.5
Method: For in vivo administration, mRNA comprising in the 5' to 3' direction a sequence encoding for luciferase of SEQ ID NO:1, was encapsulated into LNPs following the procedure described in Hassett, K. J. et al., "Optimization of Lipid Nanoparticles for Intramuscular Administration of mRNA Vaccines", 2019, Mol. Ther. Nucleic Acid, vol. 15, pp. 1-11. Briefly, the purified mRNAs were first diluted in sodium citrate buffer at pH=4 at a final concentration of 266 µg/ml. Separately, a mixture of the ionizable lipid of the invention:DSPC (Merk 850365P):cholesterol (Sigma C3045):DMG-PEG2000 (Cayman 33945-1) were dissolved into ethanol at the respective molar percentages of 50:10:38.5:1.5, and with a lipid-nitrogen-to-phosphate ratio (N:P) ratio of 5,5:1.
The mRNA aqueous solution was then carefully added to the ethanol solution, and the resulted solution was homogenized by pipetting up and down for 4-5 times. The resulting LNPs were immediately diluted 1:1 with Tris buffer and dialyzed overnight against Tris buffer containing 15% sucrose. The resulting LNP solution was then collected, and the encapsulated mRNA was assessed by Quant-IT® Ribogreen (Invitrogen R11490) following the manufacturer's instructions.
Female BALB/c mice (Charles River Laboratories), 8-10-week-old, weighting 18-23 g, were acclimatized to new conditions upon arrival to experimental facilities for 3-7 days. Housing conditions were room temperature 20-24 °C, humidity 50-70 %, and light intensity 60 lux with a light-dark cycle of 12 hours.
For Firefly Luciferase activity measurement in mice, LNPs produced as indicated above (ionizable lipid:helper lipid: sterol:PEG-modified lipid → 50:10:38.5:1.5) and containing 5 µg of the indicated mRNA in 50 µl final volume, were injected intramuscularly.
From 4 to 72 hours after RNA-LPN inoculation mice were anaesthetized by inhalation with 4% of isoflurane using a vaporizer. The maintenance of the anaesthesia was performed at 1.5% of isoflurane. Then, D-luciferin (Quimigen, 12507) was injected intraperitoneally at 150 mg/kg, normally ~200 µL of the stock at 15 mg/mL in PBS for a 20 g mouse. Luciferase images were acquired 10 minutes after luciferin inoculation using the IVIS Lumina XRMS Imaging System following manufacturer's instructions.

[1] = RNA encapsulation efficiency of LNPs by Quant-IT Ribogreen; assay type: physicochemical; conditions: for Encaps. efficiency (%): LNPs with luciferase mRNA, ionizable lipid:non-cationic lipid:sterol:PEG-modified lipid 50:10:38.5:1.5, percentage of RNA entrapped in the LNP; for Encaps. efficiency: Table 8, LNP 50:10:38.5:1.5, luciferase mRNA
How it was run: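 LNPs formed by mixing aqueous mRNA into ethanol lipid solution, diluted 1:1 in Tris, dialysed overnight against Tris with 15% sucrose. Encapsulated mRNA measured by Ribogreen fluorescence per kit protocol; LNPs adjusted to 100 µg/ml final mRNA.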

[2] = Size distribution, polydispersity and Z-potential of LNPs by dynamic light scattering (Malvern Zetasizer); assay type: physicochemical; conditions: LNPs, standard formulation 50:10:38.5:1.5; DLS
Method: The LNP solution was then adjusted to a final concentration of mRNA of 100 µg/ml. Size distribution, polydispersity and Z-potential were measured by dynamic light scattering (DLS) using Malvern Zetasizer Advance Lab Blue Label. RNA encapsulation was assessed by Quant-IT® Ribogreen following the manufacturer's instructions.

Structure (SMILES)	protein expression in mice (transfection results) (Female BALB/c mice)	Encaps. efficiency (%) [1] [%]	P.D.I. [2]	Particle size/ Ø (nm) [2] [nm]	Z Potential (± D.E.) [mV] [2] [mV]	Total Flux (Female BALB/c mice) [p·s^-1]	Encaps. efficiency [1] [%]
CCCCCCCCCCCCC(CCCCCCCCCC)COC(=O)CCSCC(CC(=O)NCCCN1CCOCC1)C(=O)OC(CCCCCCCC)CCCCCCCC (centres unmarked) [VC-LC-0553]	good transfection results	36.11	0.22	196.2	-8.66	–	–
CCCCCCCC/C=C\CCCCCCCC(=O)NC(CCSCCC(=O)OCC(CCCCCCCCCC)CCCCCCCCCCCC)C(=O)NC1CCN(C)CC1 (centres unmarked) [VC-LC-0356]	–	68.27	0.09	218.9	-10.96	3.83E+07	68.3
CCCCCCCCCCCCCCCCCCOC(=O)CCSCCC(NC(=O)C(CCCCCC)CCCCCCCC)C(=O)NC1CCN(C)CC1 (centres unmarked) [VC-LC-0215]	–	58.34	–	143.5	-13.70	4.23E+07	58.3
CCCCCCCCCCCCCCCCCCCCCCOC(=O)CCSCC(CC(=O)NCCCN1CCOCC1)C(=O)OC(CCCCCCCC)CCCCCCCC (centres unmarked) [VC-LC-0549]	–	36.38	0.27	194.9	-16.95	2.5E+07	36.38
CCCCCCCCCCCCCOC(=O)CCSCCC(NC(=O)C(CCCCCCCC)CCCCCCCCCC)C(=O)NCC1CCN(C)CC1 (centres unmarked) [VC-LC-0507]	–	95.15	0.13	151.1	-2.76	2.29E+07	95.2
CCCCCCCC/C=C\CCCCCCCC(=O)NC(CCSCCC(=O)OCCCCCCCCCCCCC)C(=O)NCCCN(CCO)CCO (centres unmarked) [VC-LC-0289]	good transfection results	89.26	0.2	207.1	-0.34	2.329E+07	89.3
CCCCCCCCCCCCCCCCCC(=O)NC(CCSCCC(=O)OCC(CCCCCCCCCC)CCCCCCCCCCCC)C(=O)NCCCN1CCOCC1 (centres unmarked) [VC-LC-0389]	good transfection results	76.40	0.26	218	-9.68	–	–
CCCCCCCCC(CCCCCC)C(=O)NC(CCSCCC(=O)OCCCCCCCC(C)C)C(=O)NCCCN(C)C (centres unmarked) [VC-LC-0101]	–	96.01	–	–	0.00	1.05E+07	96.0
CCCCCCCCCCC(CCCCCCCC)C(=O)NC(CCSCCC(=O)OCC(CCCCCC)CCCCCCCC)C(=O)NC1CCN(C)CC1 (centres unmarked) [VC-LC-0557]	–	77.19	0.11	142.5	-6.12	4.3E+07	77.2
CCCCCCCCCCCCCCCCOC(=O)CCSCC(CC(=O)NCCCN1CCOCC1)C(=O)OC(CCCCCCCC)CCCCCCCC (centres unmarked) [VC-LC-0547]	–	31.52	0.18	168	-13.52	1.1E+08	31.52
CCCCCCCCCCCCCOC(=O)CCSCCC(NC(=O)C(CCCCCC)CCCCCCCC)C(=O)NCC1CCN(C)CC1 (centres unmarked) [VC-LC-0490]	–	97.16	0.18	136.1	0.83	1.7E+07	97.2
